Assay results reported in patent US20130217639A1, “COMPOUND FOR ACTIVATING NATURAL KILLER T CELLS AND PREPARING METHOD THEREOF” (NATIONAL TSING HUA UNIVERSITY, priority 2012, published 2013).
“Also recorded” adds a separate entry of the source.

Tested on: human Vα24+/Vβ11+ iNKT cells
Assay: Stimulation of human Vα24+/Vβ11+ NKT cell populations in PBMC culture, flow cytometry
Assay type: cell-based
Settings: PBMC from a normal healthy donor, 100 nM, 14 days of culture
Method: Peripheral blood mononuclear cells (PBMC) from a normal healthy donor were incubated with each individual compound at a final concentration of 100 nM. After 14 days of culture, NKT cell frequencies were determined by flow cytometry. NKT cell frequencies were defined as the percentage of Vα24+/V−β11+ cells among gated lymphocytes in the upper right (UR) corner for each case. Shown here are the profiles of PBMC harvested from 14-day cultures containing (a) vehicle alone (DMSO, UN), or (b) 100 nM of α-GalCer (KS), (c) analog 18 (DABB), or (d) analog 19 (DAGBB), as indicated.
The less toxic product mixtures were further examined. These sample mixtures after simple filtration through silica gel were submitted to analysis with ESI-MS. […] Among them, 4-benzyl benzoic acid derived amide product showing the most significant signals was resynthesized in both its ceramidic form 18 and galactosyl ceramidic form 19 (Scheme 6). The subsequent validation experiment was performed by MTT assay and flowcytotmetry (FIG. 4). […] This confirmed the important role played by sugar moieties.

## CCCCCCCCCCCCCC[C@@H](O)[C@@H](O)[C@H](CO[C@H]1O[C@H](CNC(=O)c2ccc(CCCC)cc2)[C@H](O)[C@H](O)[C@H]1O)NC(=O)c1ccc(CCCC)cc1 [analog 19, 4-butyl-N-(((2R,3R,4S,5R,6S)-6-(((2S,3S,4R)-2-(4-butylbenzamido)-3,4-dihydroxyoctadecyl)oxy)-3,4,5-trihydroxytetrahydro-2H-pyran-2-yl)methyl)benzamide]
  stimulation of Vα24+/Vβ11+ iNKT cell population: stimulats human iNKT cell population; also recorded: stimulative
